Source: PubChem BioAssay (NCI)
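The compound was tested at five concentrations on cells cultured in 96-well plates, with a 48-hour exposure period. TGI is the concentration that stops growth completely.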

How the values were obtained:
Test in all cases: growth of human tumour cells (NCI), 48 h
SK-MEL-5 melanoma = tested on: SK-MEL-5 melanoma
SK-MEL-28 melanoma = tested on: SK-MEL-28 melanoma
U251 CNS = tested on: U251 CNS
ACHN renal = tested on: ACHN renal
SF-268 CNS = tested on: SF-268 CNS
MOLT-4 leukemia = tested on: MOLT-4 leukemia
NCI/ADR-RES ovarian = tested on: NCI/ADR-RES ovarian
PC-3 prostate = tested on: PC-3 prostate
MDA-N = tested on: MDA-N
A498 renal = tested on: A498 renal
MDA-MB-435 = tested on: MDA-MB-435
SR leukemia = tested on: SR leukemia
M14 melanoma = tested on: M14 melanoma
TK-10 renal = tested on: TK-10 renal
786-0 renal = tested on: 786-0 renal
HOP-62 NSCLC = tested on: HOP-62 NSCLC
NCI-H226 lung = tested on: NCI-H226 lung
DU-145 prostate = tested on: DU-145 prostate
SK-OV-3 ovarian = tested on: SK-OV-3 ovarian
OVCAR-5 ovarian = tested on: OVCAR-5 ovarian
MCF7 breast = tested on: MCF7 breast
HCT-15 colon = tested on: HCT-15 colon
OVCAR-4 ovarian = tested on: OVCAR-4 ovarian
EKVX NSCLC = tested on: EKVX NSCLC
A549 NSCLC = tested on: A549 NSCLC
MALME-3M melanoma = tested on: MALME-3M melanoma
LOX IMVI melanoma = tested on: LOX IMVI melanoma
SN12C renal = tested on: SN12C renal
HL-60(TB) leukemia = tested on: HL-60(TB) leukemia
HCC-2998 colon = tested on: HCC-2998 colon
OVCAR-8 ovarian = tested on: OVCAR-8 ovarian
RXF 393 renal = tested on: RXF 393 renal
HOP-92 NSCLC = tested on: HOP-92 NSCLC
IGROV1 ovarian = tested on: IGROV1 ovarian
COLO 205 colon = tested on: COLO 205 colon
T-47D breast = tested on: T-47D breast
NCI-H23 lung = tested on: NCI-H23 lung
SNB-19 CNS = tested on: SNB-19 CNS
UACC-257 melanoma = tested on: UACC-257 melanoma
MDA-MB-231 breast = tested on: MDA-MB-231 breast
SW-620 colon = tested on: SW-620 colon
CCRF-CEM leukemia = tested on: CCRF-CEM leukemia
K-562 leukemia = tested on: K-562 leukemia
UACC-62 melanoma = tested on: UACC-62 melanoma
SF-295 CNS = tested on: SF-295 CNS
NCI-H522 lung = tested on: NCI-H522 lung
HT29 colon = tested on: HT29 colon
HCT-116 colon = tested on: HCT-116 colon
CAKI-1 renal = tested on: CAKI-1 renal
SF-539 CNS = tested on: SF-539 CNS
SK-MEL-2 melanoma = tested on: SK-MEL-2 melanoma
KM12 colon = tested on: KM12 colon
NCI-H460 lung = tested on: NCI-H460 lung
OVCAR-3 ovarian = tested on: OVCAR-3 ovarian
UO-31 renal = tested on: UO-31 renal
SNB-75 CNS = tested on: SNB-75 CNS

COc1cccc2c1C(=O)c1c(O)c3c(c(O)c1C2=O)CC(O)(C(O)CO)CC3OC1CC2C(OC3COCC(C#N)N32)C(C)O1 (stereo not given)
TGI (SK-MEL-5 melanoma): < 0.01 µM | TGI (SK-MEL-28 melanoma): < 0.01 µM | TGI (U251 CNS): 0.13 µM | TGI (ACHN renal): 0.213 µM | TGI (SF-268 CNS): 0.0324 µM | TGI (MOLT-4 leukemia): < 0.01 µM | TGI (NCI/ADR-RES ovarian): < 0.01 µM | TGI (PC-3 prostate): 0.0194 µM | TGI (MDA-N): < 0.01 µM | TGI (A498 renal): < 0.01 µM | TGI (MDA-MB-435): < 0.01 µM | TGI (SR leukemia): > 100 µM | TGI (M14 melanoma): < 0.01 µM | TGI (TK-10 renal): < 0.01 µM | TGI (786-0 renal): 0.0282 µM | TGI (HOP-62 NSCLC): 0.0432 µM | TGI (NCI-H226 lung): < 0.01 µM | TGI (DU-145 prostate): 0.406 µM | TGI (SK-OV-3 ovarian): 0.0727 µM | TGI (OVCAR-5 ovarian): 4.31 µM | TGI (MCF7 breast): 2.15 µM | TGI (HCT-15 colon): 1.04 µM | TGI (OVCAR-4 ovarian): < 0.01 µM | TGI (EKVX NSCLC): 0.0644 µM | TGI (A549 NSCLC): > 100 µM | TGI (MALME-3M melanoma): < 0.01 µM | TGI (LOX IMVI melanoma): 0.0125 µM | TGI (SN12C renal): 1.47 µM | TGI (HL-60(TB) leukemia): < 0.01 µM | TGI (HCC-2998 colon): < 0.01 µM | TGI (OVCAR-8 ovarian): 1.71 µM | TGI (RXF 393 renal): < 0.01 µM | TGI (HOP-92 NSCLC): < 0.01 µM | TGI (IGROV1 ovarian): < 0.01 µM | TGI (COLO 205 colon): < 0.01 µM | TGI (T-47D breast): < 0.01 µM | TGI (NCI-H23 lung): < 0.01 µM | TGI (SNB-19 CNS): 0.0144 µM | TGI (UACC-257 melanoma): < 0.01 µM | TGI (MDA-MB-231 breast): 0.0139 µM | TGI (SW-620 colon): 13.5 µM | TGI (CCRF-CEM leukemia): < 0.01 µM | TGI (K-562 leukemia): < 0.01 µM | TGI (UACC-62 melanoma): < 0.01 µM | TGI (SF-295 CNS): > 100 µM

C=C(C)/C=C/C(O)[C@](C)(O)[C@H]1[C@H](O)C[C@@]2(C)[C@@H]3CCc4c(cc(OC5OC(CO)C(O)C(O)C5O)c(O)c4C)C3(C)C(=O)C[C@]12C (stereo not given in full)
TGI (SK-MEL-5 melanoma): > 100 µM | TGI (SK-MEL-28 melanoma): > 100 µM | TGI (U251 CNS): > 100 µM | TGI (ACHN renal): > 100 µM | TGI (NCI-H522 lung): > 100 µM | TGI (SF-268 CNS): > 100 µM | TGI (MOLT-4 leukemia): > 100 µM | TGI (NCI/ADR-RES ovarian): > 100 µM | TGI (PC-3 prostate): > 100 µM | TGI (MDA-N): > 100 µM | TGI (A498 renal): > 100 µM | TGI (MDA-MB-435): > 100 µM | TGI (SR leukemia): > 100 µM | TGI (M14 melanoma): > 100 µM | TGI (TK-10 renal): > 100 µM | TGI (HT29 colon): > 100 µM | TGI (HCT-116 colon): > 100 µM | TGI (786-0 renal): > 100 µM | TGI (HOP-62 NSCLC): > 100 µM | TGI (CAKI-1 renal): > 100 µM | TGI (NCI-H226 lung): > 100 µM | TGI (DU-145 prostate): > 100 µM | TGI (SF-539 CNS): > 100 µM | TGI (SK-OV-3 ovarian): > 100 µM | TGI (OVCAR-5 ovarian): > 100 µM | TGI (MCF7 breast): > 100 µM | TGI (HCT-15 colon): > 100 µM | TGI (OVCAR-4 ovarian): > 100 µM | TGI (EKVX NSCLC): > 100 µM | TGI (A549 NSCLC): > 100 µM | TGI (SK-MEL-2 melanoma): > 100 µM | TGI (MALME-3M melanoma): > 100 µM | TGI (LOX IMVI melanoma): > 100 µM | TGI (SN12C renal): > 100 µM | TGI (HCC-2998 colon): > 100 µM | TGI (OVCAR-8 ovarian): > 100 µM | TGI (KM12 colon): > 100 µM | TGI (RXF 393 renal): > 100 µM | TGI (HOP-92 NSCLC): > 100 µM | TGI (IGROV1 ovarian): > 100 µM | TGI (NCI-H460 lung): > 100 µM | TGI (COLO 205 colon): > 100 µM | TGI (T-47D breast): > 100 µM | TGI (NCI-H23 lung): > 100 µM | TGI (SNB-19 CNS): > 100 µM | TGI (UACC-257 melanoma): > 100 µM | TGI (OVCAR-3 ovarian): > 100 µM | TGI (MDA-MB-231 breast): > 100 µM | TGI (SW-620 colon): > 100 µM | TGI (CCRF-CEM leukemia): > 100 µM | TGI (UO-31 renal): > 100 µM | TGI (K-562 leukemia): > 100 µM | TGI (UACC-62 melanoma): > 100 µM | TGI (SNB-75 CNS): > 100 µM | TGI (SF-295 CNS): > 100 µM
